Results: a melting point compilation (Tetko et al.; mined from patent text by program, amines drawn as free bases though some values may be those of a salt)

Row | SMILES | melting point
1 | O=S1(=O)N=C2CCCN2c2ccc(O)cc21 | > 300 °C
2 | CC(C)CCOc1cccc2oc(C(=O)O)cc(=O)c12 | 179 to 180 °C
3 | CC1(C)CC(=O)C2=C(C1)NC1=C(C(=O)CC(C)(C)C1)C2c1ccc(Cl)c(Oc2ccccc2)c1 | 246 to 248 °C
4 | N#CN=C(Nc1cccnc1)NC(NC(=O)c1ccc(Cl)cc1)C12CC3CC(CC(C3)C1)C2 (centres undefined) | 209 to 210 °C
5 | NS(=O)(=O)c1ccc(NC(=O)Nc2ccc(I)cc2)cc1 | 275 to 277 °C
6 | NS(=O)(=O)c1ccc(-c2c(COCCCO)n[nH]c2-c2ccc(Cl)cc2)cc1 | 96 °C
7 | CC(=O)Nc1ccccc1NS(=O)(=O)c1cc(C(=O)O)cc(NCc2ccco2)c1Oc1ccccc1 | 207 to 210 °C
8 | Cc1cccc2c(C=C(Br)Br)csc12 | 75 to 78 °C
9 | CCCCCC1CCC(c2ccc(-c3cc(F)c(N)cc3F)cc2)CC1 (centres undefined) | 68.3 to 70.4 °C
10 | CCC(Oc1c(C)c(F)cc(F)c1F)C1=NCCN1 (centres undefined) | 99 to 101 °C
11 | CC(C)(C)[N+]([O-])=Cc1c[nH]c(-c2ccccc2)n1 | 209 to 210 °C
12 | Cc1ccc(-c2cc(C(=O)C=Cc3ccc(C(=O)O)cc3)cc(C(C)(C)C)c2OCc2ccccc2)cc1 | 208 °C
13 | CC(=O)OC1CSC(Oc2ccc(-c3ccsc3)nc2)C(OC(C)=O)C1OC(C)=O (centres undefined) | 158 °C
14 | c1ccc(COc2c(-c3ccccc3)n[nH]c2-c2ccccc2)cc1 | 152 °C
15 | Cc1c(N)c(C)c(C(C)C)c2c1CC(C)(CN1CCC(c3ccccc3)CC1)O2 (centres undefined) | 128 to 131 °C
16 | CCNC(=O)c1c(Cl)cccc1[Si](C)(C)C | 105 to 107 °C
17 | Nc1ccc2c(c1)N1CCCN=C1S2 | 197 °C
18 | O=C1Nc2cccc(Cl)c2C(=O)N2CC[C@@H]12 | 225 to 228 °C
19 | O=C(O)C1CC1c1cc(=O)c2cc(-c3ccccc3)ccc2o1 (centres undefined) | 226 to 228 °C
20 | CCCCCCCCCCCCCCCCCCCCOC(=O)Nc1ccc(NC(=O)NS(=O)(=O)c2ccc3ccccc3c2)cc1 | 181 °C
21 | COc1ccc(C(=O)Nc2ccccc2)cc1NC(=S)Nc1ccc(Cl)c([N+](=O)[O-])c1 | 174 to 175 °C
22 | NNC(=O)c1cc2c(Oc3ccc(C(F)(F)F)cc3)cncc2s1 | 146 to 147 °C
23 | CC(C)(C)CC(C)(C)c1cc(-n2nc3ccc(Cl)cc3n2)c(O)c(C(C)(C)c2ccccc2)c1 | 104 to 105 °C
24 | CCC1Cc2cc(OCC(=O)O)cc(Br)c2C1=O (centres undefined) | 146 to 148 °C

Row | SMILES | melting point
25 | CCCCCCCCCCCCCCCCCCN(CCCCCCCCCCCCCCCCCC)c1ccccc1 | 110 to 111 °C
26 | COC(=O)c1scc(-c2ccccc2OC)c1-n1cccc1 | 148 °C
27 | CCOC(=O)C(=CNc1cccc(C)n1)C(=O)OCC | 102 to 104 °C
28 | CC(C)(C)NCC(=O)NCCn1ccc2ncnc(Nc3ccc(Oc4cccc5sncc45)c(Cl)c3)c21 | 178 to 180 °C
29 | CCCCCCCCCCCCN1C(=O)CC(c2cc(C(C)(C)C)c(O)c(C(C)(C)C)c2)C1=O (centres undefined) | 66 to 70 °C
30 | O=C(O)c1ccc(OCCCNc2ccc(NCc3ccc4c(c3)OCCO4)cc2)cc1 | 246 to 247 °C
31 | CC(=O)OCc1nc2cc3c(cc2c(=O)n1COC(=O)C(C)(C)C)C(=O)CC3 | 144 °C
32 | CC(C)(C)c1ccc(OP(Oc2ccc(C(C)(C)C)cc2C(C)(C)C)Oc2ccc(C(C)(C)C)cc2C(C)(C)C)c(C(C)(C)C)c1 | 181 to 186 °C
33 | C#CCNC(=O)C=C(C)N | 137 to 138 °C
34 | C[C@@H](Nc1ncnc2[nH]c(-c3ccc(CN4CCN(C(=O)OC(C)(C)C)CC4)cc3)cc12)c1ccccc1 | 244 to 246 °C
35 | O=C1CC(Cc2ccccc2Cl)CN1 (centres undefined) | 87 to 89 °C
36 | Cc1cc(C)cc(NCc2ccc3nc(NCC(O)CO)n(Cc4nc(C)ccc4O)c3c2)c1 (centres undefined) | 128 °C
37 | OCc1conc1-c1ccc(-c2ccccc2)cc1 | 138 to 139 °C
38 | O=c1[nH]c2cc(Br)sc2[nH]c1=O | > 300 °C
39 | CCOC(=O)CC(=O)C(C)(C)Sc1ccccc1 | 44 to 45 °C
40 | Fc1ccc(F)c(CN2CCNc3ncc(-c4ccc(N5CCOCC5)nc4)cc32)c1 | 206 to 207 °C
41 | CC(C)(ON1C(=O)c2ccccc2C1=O)C(=O)O | 133 to 135 °C
42 | O=C1NC(=O)C2(CCOc3ccc(F)cc32)S1 (centres undefined) | 147 to 149 °C
43 | O=[N+]([O-])c1cc2nc(O)c(O)nc2c2c([N+](=O)[O-])cccc12 | > 300 °C
44 | CNc1ccc2[nH]ncc2c1 | 144 to 146 °C
45 | CCCc1ccc(-n2nc(Cl)cc2-c2ccc(S(C)(=O)=O)cc2)cc1Cl | 119 to 122 °C
46 | Cc1ccc(S(=O)(=O)Oc2c(-c3ccc(S(C)(=O)=O)cc3)cnn(-c3cccc(Cl)c3)c2=O)cc1 | 198 to 200 °C
47 | C[Si](C)(c1ccccc1)C1CC(=O)c2c(nc3ccccc3c2N)C1 (centres undefined) | 178 to 180 °C
48 | CNC1([C@@H]2CCN(c3ccc4c(=O)c(C(=O)O)cn(C5CC5)c4c3C)C2)CC1 | 190 to 192 °C

Now from value to compound:

Row | melting point | SMILES
49 | 77 to 81 °C | Cc1ccc(Cl)c(-c2ccc(S(=O)(=O)N3c4ccccc4CC3C(=O)NCCOc3ccc(CC(=O)O)cc3)cc2)c1 (centres undefined)
50 | 173 to 174 °C | CC(C)C1=NC(NC(=O)CCc2ccc(Cl)cc2Cl)C(=O)N(C)c2ccccc21 (centres undefined)
51 | 269 to 271 °C | O=C1CCC(N2Cc3cc(CNC(=O)Nc4cc(Cl)ccc4Cl)ccc3C2=O)C(=O)N1 (centres undefined)
52 | 242 to 245 °C | CCOCOCCCOn1cnc2c(=O)[nH]c(N)nc21
53 | 268 to 270 °C | O=C(Nc1ccc2c(c1)nc1n2CCC1)c1cc2cc(C(F)(F)F)cnc2n1Cc1ccccc1
54 | 104 to 106 °C | CCCC1c2c(ccc(C(C)=O)c2O)OC1COc1ccc(CC(=O)O)cc1 (centres undefined)
55 | 63 to 65 °C | CCOC(=O)CC(NC(=O)c1cccc(Cl)c1)C(=O)c1ccsc1 (centres undefined)
56 | 115 °C | CC(C)(C)OC1OC(=O)C2C1C2(C)C (centres undefined)
57 | 228 to 235 °C | CC(=O)c1cccc2oc(C(=O)Nc3ccc(-c4ccc(S(=O)(=O)NC(C(=O)O)C(C)C)cc4)cc3)c(C)c12 (centres undefined)
58 | 211 to 212 °C | O=c1c2cc(CBr)ccc2oc2ncccc12
59 | 312 to 321 °C | Nc1ncc2cc(-c3ccccn3)c(N)nc2n1
60 | 165 to 166 °C | Cc1oc(-c2ccccc2)nc1/C=C/c1ccc(/C=C/CO)cc1
61 | 89 to 90 °C | CCOC(OCC)C(=O)Nc1ccc(Cl)cc1N
62 | 148 °C | COc1cc(OC)cc(-c2nc[nH]c2-c2ccc(OC)c(O)c2N)c1
63 | 248 to 249 °C | CCOC(=O)N1Cc2[nH]c3ccc(F)cc3c2C1
64 | 248 to 254 °C | Nc1nc2c(sc(=O)n2CC(O)CO)c(=O)[nH]1 (centres undefined)
65 | 110 to 112 °C | CC(=O)NCSC[C@H](NC(=O)OC(C)(C)C)C(=O)O
66 | 98 to 101 °C | FC(F)(F)c1cc(Cc2ccc(Cl)c(C(F)(F)F)c2)ccc1Cl
67 | 215 to 218 °C | CS(=O)(=O)c1ccc(-c2cnn(CC(F)(F)F)c(=O)c2C2CCCCC2)cc1
68 | 175 to 176 °C | CCn1c(=O)c2c(nc(/C=C/c3ccc(OCCCCBr)cc3)n2C)n(CC)c1=O
69 | 126 to 131 °C | CCC(=O)C(Cc1cc(O)c(O)c([N+](=O)[O-])c1)C(=O)CC
70 | 75 to 77 °C | CCCCCc1c(-c2ccc3c(Br)c(O)ccc3c2)oc2ccccc12
71 | 113 °C | C=CCOc1ccc([C@H]2CCN(C(=O)OC(C)(C)C)C[C@@H]2O)cc1 (racemic)
72 | 249 to 250 °C | COc1cc2c3c(n(CCCNS(=O)(=O)c4ccccc4)c(=O)c2cc1OC)-c1ccccc1C3=O
73 | 126 to 132 °C | CCCCOc1cc2ncnc(N3CCc4ccc(Cl)cc43)c2cc1OC
74 | 108 to 109 °C | COC(=O)CC[C@H](NC(=O)c1ccc(OCc2ccccc2)cc1)C(=O)OC

Row | melting point | SMILES
75 | 230 to 232 °C | Sc1ccc2c(c1)Sc1ccc(Cl)cc1N2
76 | 155 °C | CCCCOc1ccc(C(=O)Nc2ccc3cc(CN4CCN(C)CC4)cnc3c2C)c(F)c1
77 | > 280 °C | N#Cc1c2c(cc3ccc(O)cc13)-c1ccc(O)cc1CO2
78 | 149 °C | CCN(C(=O)n1occc1=O)c1ccc(Cl)cc1
79 | 182 to 183 °C | COc1cc2c(cc1OC)-c1cc(N(c3c(C)cc(C)cc3C)C(C)C)nc(=O)n1CC2
80 | 119 to 121 °C | COC=Nc1c(SC)c(-c2ncon2)nn1-c1c(Cl)cc(C(F)(F)F)cc1Cl
81 | 148 °C | Cc1csc2nc3cc(F)ccc3n12
82 | 216 to 218 °C | N#CCc1c[nH]c2ccc(NC(=O)c3ccc[nH]3)cc12
83 | 88 to 91 °C | CN(Cc1cccs1)C(=O)C12CC3CC(CC(O)(C3)C1)C2
84 | 144 to 145 °C | CC(C)=C(C(=O)O)c1ccc(Cl)cc1
85 | 170 to 171 °C | CC1(C)CN(Cc2cc3ncccc3o2)c2nc(-c3ccncc3)cc(=O)n2C1
86 | 89 to 91 °C | O=C(c1ccccc1)C(Br)OCc1ccc(Cl)cc1Cl (centres undefined)
87 | 265 to 267 °C | Cc1cccc(C)c1CNc1c(NC(C)(C)C)c(=O)c1=O
88 | 167 to 170 °C | CC(=O)N1OC(C)C(=S)NC1c1ccccc1C (centres undefined)
89 | 142 to 143 °C | COC(=O)C=Cc1ccc(OCc2nc(-c3ccccc3)c(C)s2)cc1
90 | 59 °C | CCCCc1ccc(-c2ccc(CCc3cc(F)cc(F)c3)cc2)cc1
91 | 123 to 126 °C | CC(=O)N(C1=C(NC(C)C)C(=O)c2c(cnn2C)C1=O)C(C)C
92 | 218 to 221 °C | CCOCc1nc2c(N)nc3ccc(O)cc3c2n1CCCCN(C(N)=O)c1ccccc1
93 | 94 to 95 °C | CN1CCN(c2ccc(S(=O)(=O)Oc3ccccc3)c(Cl)c2[N+](=O)[O-])CC1
94 | 91 to 93 °C | COC(=O)c1c(C=O)cccc1Oc1nc(OC)cc(OC)n1
95 | 125 to 126 °C | CC(C)CN/C(=C1/Sc2ccccc2C1=O)c1ccccc1
96 | 206 °C | Cc1cccc(NC(=O)NCC(=O)N(CC(=O)N2CCCC2)c2ccccc2)c1
97 | 120 to 121 °C | CCCn1c(=O)c2c(N3CCN(C)CC3)cc(Cl)cc2n(Cc2ccccc2)c1=O
98 | 70 °C | O=Cc1ccc(-c2ccc(C(F)(F)F)cc2)cc1
99 | 214 to 217 °C | CC(C)(COc1ccc(Cl)cc1)C(=O)C(Oc1ccc(Cl)cc1)n1ccnc1 (centres undefined)
